Source: patent publication US20230151057A1, “LACTIC ACID BACTERIA GROWTH PROMOTER” (Asahi Group Holdings, Ltd., priority 2020, published 2023)
Ends that are not written are not given here.

How the values were obtained:
Assay type in all cases: cell-based
[1] = system: Lactobacillus curvatus (NITE P-02033); test: Growth-promoting effect on Lactobacillus curvatus in modified MRS medium (particle count); conditions: Example 4, peptide 0.25 mg/mL, 37° C., 18 hours; for Rate of increase: control = 100%
Description: Nitrogen sources in MRS medium were reduced to find a medium composition that achieves a total bacterial count of about 1.0×10^8 cell/mL to 1.0×10^9 cell/mL after culturing of each of the six bacterial strains Lactobacillus gasseri (FERNM BP-11331), Lactobacillus acidophilus (FERM BP-4981), Lactobacillus amylovorus (FERM BP-11255), Lactobacillus curvatus (NITE P-02033), Lactobacillus plantarum, and Lactobacillus brevis. This composition, named “modified MRS medium”, was used for the evaluation. Here, for the composition of the MRS medium, a composition described in a medium catalog provided by BD (Becton, Dickinson and Company) was used as a reference. The compositions of the MRS medium and the modified MRS medium are as follows. By chemical synthesis, 28 kinds of candidate peptides having the sequences shown below were provided. Each candidate peptide was added to the modified MRS medium at 0.25 mg/mL to provide a medium to be evaluated. The lactic acid bacterium Lactobacillus gasseri was inoculated at 1.0×10^7 cells/mL to the provided medium to be evaluated, and culture was carried out at a temperature of 37° C. for a culture period of 18 hours. The resulting culture was collected, and subjected to measurement of the particle concentration (particles/mL) as a characteristic value that can be used as an index of the bacterial cell growth, using a particle count analyzer (CDA-1000, Sysmex). The rate of increase (%) was calculated relative to a control value obtained using a medium to which no peptide was added, which was taken as 100%. For eight kinds of candidate peptides having the sequences shown below, the growth-promoting effect on a lactic acid bacterium was evaluated in the same manner as in Example 1 except that Lactobacillus curvatus was used instead of Lactobacillus gasseri.

Lactobacillus plantarum = test: Growth-promoting effect on Lactobacillus plantarum in modified MRS medium (particle count); conditions: Example 5, peptide 0.25 mg/mL, 37° C., 18 hours; for Rate of increase: control = 100%
Description: Nitrogen sources in MRS medium were reduced to find a medium composition that achieves a total bacterial count of about 1.0×10^8 cell/mL to 1.0×10^9 cell/mL after culturing of each of the six bacterial strains Lactobacillus gasseri (FERNM BP-11331), Lactobacillus acidophilus (FERM BP-4981), Lactobacillus amylovorus (FERM BP-11255), Lactobacillus curvatus (NITE P-02033), Lactobacillus plantarum, and Lactobacillus brevis. This composition, named “modified MRS medium”, was used for the evaluation. Here, for the composition of the MRS medium, a composition described in a medium catalog provided by BD (Becton, Dickinson and Company) was used as a reference. The compositions of the MRS medium and the modified MRS medium are as follows. By chemical synthesis, 28 kinds of candidate peptides having the sequences shown below were provided. Each candidate peptide was added to the modified MRS medium at 0.25 mg/mL to provide a medium to be evaluated. The lactic acid bacterium Lactobacillus gasseri was inoculated at 1.0×10^7 cells/mL to the provided medium to be evaluated, and culture was carried out at a temperature of 37° C. for a culture period of 18 hours. The resulting culture was collected, and subjected to measurement of the particle concentration (particles/mL) as a characteristic value that can be used as an index of the bacterial cell growth, using a particle count analyzer (CDA-1000, Sysmex). The rate of increase (%) was calculated relative to a control value obtained using a medium to which no peptide was added, which was taken as 100%. For eight kinds of candidate peptides having the sequences shown below, the growth-promoting effect on a lactic acid bacterium was evaluated in the same manner as in Example 1 except that Lactobacillus plantarum was used instead of Lactobacillus gasseri.

[2] = system: Lactobacillus acidophilus (FERM BP-4981); test: Growth-promoting effect on Lactobacillus acidophilus in modified MRS medium (particle count); conditions: Example 2, peptide 0.25 mg/mL, 37° C., 18 hours; for Rate of increase: control = 100%
Description: Nitrogen sources in MRS medium were reduced to find a medium composition that achieves a total bacterial count of about 1.0×10^8 cell/mL to 1.0×10^9 cell/mL after culturing of each of the six bacterial strains Lactobacillus gasseri (FERNM BP-11331), Lactobacillus acidophilus (FERM BP-4981), Lactobacillus amylovorus (FERM BP-11255), Lactobacillus curvatus (NITE P-02033), Lactobacillus plantarum, and Lactobacillus brevis. This composition, named “modified MRS medium”, was used for the evaluation. Here, for the composition of the MRS medium, a composition described in a medium catalog provided by BD (Becton, Dickinson and Company) was used as a reference. The compositions of the MRS medium and the modified MRS medium are as follows. By chemical synthesis, 28 kinds of candidate peptides having the sequences shown below were provided. Each candidate peptide was added to the modified MRS medium at 0.25 mg/mL to provide a medium to be evaluated. The lactic acid bacterium Lactobacillus gasseri was inoculated at 1.0×10^7 cells/mL to the provided medium to be evaluated, and culture was carried out at a temperature of 37° C. for a culture period of 18 hours. The resulting culture was collected, and subjected to measurement of the particle concentration (particles/mL) as a characteristic value that can be used as an index of the bacterial cell growth, using a particle count analyzer (CDA-1000, Sysmex). The rate of increase (%) was calculated relative to a control value obtained using a medium to which no peptide was added, which was taken as 100%. For eight kinds of candidate peptides having the sequences shown below, the growth-promoting effect on a lactic acid bacterium was evaluated in the same manner as in Example 1 except that Lactobacillus acidophilus was used instead of Lactobacillus gasseri.

Row | Substance | Particle concentration [1] [mL⁻¹] | Rate of increase [1] [%] | Particle concentration (Lactobacillus plantarum) [mL⁻¹] | Rate of increase (Lactobacillus plantarum) [%] | Particle concentration [2] [mL⁻¹] | Rate of increase [2] [%]
1 | AGPQTF | 1.58e+08 | 111 | 3.36e+09 | 108 | 1.02e+08 | 105
2 | APKPDYPIA (listed as Saccharomyces cerevisiae) [Ala-Pro-Lys-Pro-Asp-Tyr-Pro-Ile-Ala] | 1.6e+08 | 112 | 3.45e+09 | 111 | 9.73e+07 | 100
3 | Leu-Phe [LF] | 2.22e+08 | 124 | 3.32e+09 | 107 | 8.75e+07 | 121
4 | Leu-Pro-Trp-Gly (LPWG; listed as Saccharomyces cerevisiae) | 1.97e+08 | 109 | 3.09e+09 | 100 | 1.03e+08 | 113
5 | Pro-Ser-Val-Phe (PSVF; listed as Saccharomyces cerevisiae) | 1.68e+08 | 119 | 3.17e+09 | 102 | 1e+08 | 103
6 | Pro-Val-Phe [PVF] | 1.71e+08 | 95 | 2.92e+09 | 94 | 1.01e+08 | 111
7 | Pro-Val-Tyr [PVY] | 1.64e+08 | 116 | 3.23e+09 | 104 | 1.1e+08 | 113
8 | Val-Pro-Ala-Phe (VPAF; listed as Saccharomyces cerevisiae) | 2.15e+08 | 117 | 3.27e+09 | 105 | 1.04e+08 | 113
